In publication PMC12977469, “Ligand binding drives proteolysis of the SmcR master transcription factor and controls quorum sensing-state transitions in Vibrio species” (mBio, 2026):

Target: T1, SmcR (Vibrio vulnificus, UniProt Q9L8G8)
T1 construct: full-length, His-tagged SmcR (homodimer); residues 1–15 not modeled in the crystal structure
Assay: X-ray crystal structure ([…] Å) and isothermal titration calorimetry with purified protein; SAXS
Type: binding

T1 sequence (Q9L8G8 entry or part of it): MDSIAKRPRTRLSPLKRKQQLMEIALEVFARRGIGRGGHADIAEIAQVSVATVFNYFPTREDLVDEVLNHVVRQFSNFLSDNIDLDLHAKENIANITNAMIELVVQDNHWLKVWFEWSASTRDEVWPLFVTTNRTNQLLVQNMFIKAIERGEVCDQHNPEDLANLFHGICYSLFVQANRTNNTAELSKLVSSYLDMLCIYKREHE

## O=S(=O)(c1cccs1)n1ccc(-c2ccccc2)n1 [PTSP, 3-phenyl-1-(thiophen-2-ylsulfonyl)-1H-pyrazole]
  Kd: ~1 µM
